Data on one substance can be found in US20200214324A1, “Masking Bitter Flavors” (Board of Supervisors of Louisiana State University and …, priority 2009, published 2020).

Entries after “also recorded” stand apart in the source; their conditions may differ.

Common to all, as to type: in vivo
The nature of assay [1]: tasting of aqueous potassium chloride solutions with or without mogroside. From the text: When tasted by volunteers, the solution without mogroside was bitter, unpleasant, and generally considered undrinkable.
(§1) Additional examples of the use of Mogroside V to alter the flavors of various consumables, and the experimental results obtained, are summarized in Table I: […]

Assay [2] in a line: tasting of glycerine-water mixtures with mogroside.
Excerpt: Glycerine causes an astringent or biting taste in the back of the mouth when added to foods at levels over a few percent by weight. […] Glycerine may then be used as a humectant in intermediate-moisture human and pet foods. Adding a preferred concentration of about 200 ppm mogroside reduces or even eliminates the glycerine “bite.” Foods such as beans, pasta, rice, and bulgur can be pre-cooked in aqueous solutions of glycerine (˜2 to ˜30% by weight), containing ˜25 to ˜500 ppm mogroside. The products are then optionally dried to a water activity (aw) less than ˜0.7. The resulting materials can be rehydrated quickly with no bitter flavor.
as §1

Assay [3] is described as follows: blind tasting of poached beef liver puree. On the procedure: In another experiment, mogroside was added to a beef liver puree, and the puree was poached to an internal temperature of 74° C. A control puree with no mogroside was identically cooked. Six individuals tasted the samples blind and could easily differentiate them.
A short description of assay [4]: tasting of turnip greens with mogroside in oil. To be noted: plain + 100 ppm mogroside in oil (plain: bitter).
Excerpt: as §1

Assay [5] can be described thus: tasting of Robusta coffee with chicory with mogroside. Particulars: 2 g/250 g water, plain + 200 ppm mogroside.
Excerpt: as §1

Assay [6] in a line: difference and preference testing of a cocoa powder drink with 400 ppm mogroside.
Excerpt: as §1

[7] abbreviates: cocoa powder drink + 400 ppm mogroside vs control, number of tasters.

Take mogroside: in assay [1] (2% aqueous potassium chloride with 250 ppm mogroside, tasted by volunteers, without mogroside bitter, undrinkable), the perceived taste entry is “slightly salty, otherwise bland, and far more drinkable”. The flavor result in assay [1] (KCl 2% + 250 ppm mogroside (2% alone: bitter)) was “salty”; in assay [1] (KCl 2.5% + 250 ppm mogroside), “salty”; in assay [1] (KCl 3.0% + 250 ppm mogroside), “slight bitterness”; in assay [2] (50% glycerine solution + mogroside (without: biting)) it was “sweet”; in assay [4], “semi-sweet; no; also recorded: beaniness”; in assay [5], “sweet coffee flavor”. In assay [2] (mogroside added to glycerine-water mixtures), the “effect on astringent or biting taste of glycerine” value was “greatly reduces or even eliminates the astringent or biting taste”. In addition, the “taste description by six blind tasters” value in assay [3] (150-250 ppm, puree poached to 74° C., control livery, organy, bloody) is “slightly sweet, “bologna-like,” and “bland.””. The “level preferred by the majority of testers” value in assay [3] (in vivo) came out at 200 ppm. Besides, in assay [3] (samples with mogroside vs control puree, six individuals), the preference of testers result is given as “All testers preferred the samples with mogroside”. Also, in assay [6] (setting [7]), the “Difference testing: No” value is 0. In addition, the “Difference testing: Yes” value in assay [6] (setting [7]) is 6. Also, the “Preference testing: Control” value in assay [6] (number preferring control without mogroside) came out at 1. In addition, the “Preference testing: Test” value in assay [6] (number preferring test drink with 400 ppm mogroside) is recorded as 6.
